From publication PMC8175240, “Integrase-derived peptides together with CD24-targeted lentiviral particles inhibit the growth of CD24 expressing cancer cells” (Oncogene, 2021)
Values after ≈ are worked out from the molar mass of the structure shown. Residues, ends and D or L forms follow the SMILES beside them.

Columns and labels:
[1] = test system: CD24 expressing cancer cells; type: cell-based, human; conditions: abstract
H1975 cells = test: Cell survival after CD24-targeted lentivirus plus peptide, MTT; type: cell-based, human; conditions: Raltegravir added to LV-CD24 plus INS or INR2
Description: (§1) The cell-killing effect of the system was measured by the MTT3-(4,5-dimethylthiazol-2-yl)-2,5-diphenyltetrazoliumenzymatic assay or by 2-(4-iodophenyl)-3-(4-nitrophenyl)-5-(2,4-disulfophenyl)-2H-tetrazolium (WST-1) assay. Two thousand cultured cells were seeded onto 96-well plates (in culture media, DMEM, or RPMI). After 24 h, different concentrations of the diverse peptides (and inhibitors) were added for 3 h. Thirty MOI of the targeted lentiviral particles were added to the cells and the plates centrifuged for 90 min at 800×g, 20 °C. Three and six days later, this procedure (peptides/inhibitor and LV treatments) was repeated. On the tenth day, cell viability was analyzed either by MTT or by WST-1; the media was replaced by fresh media (100 μl per well) containing 1 mg/ml MTT, and the cells were incubated for 2–4 more hours. MTT-formazan crystals were dissolved by the addition of extraction solution (0.1 N HCl in absolute isopropanol). Absorbance at 570 nm and a reference wavelength of 690 nm was recorded on an automated microplate reader. For WST-1, media was replaced and WST-1 was added directly to the culture wells followed by incubation of 10–60 min at 37 °C. Plates were read by an automated microplate reader by measuring the absorbance of the dye with a wavelength of 450 nm and a reference wavelength of 630 nm.

Panc-1 cells = test: Cell survival after CD24-targeted lentivirus plus peptide, WST-1; type: cell-based, human; conditions: Raltegravir added to LV-CD24 plus INS or INR2
Description: as §1

H1975 lung cancer cells [2] = test: Microscopic observation of GFP incorporation; type: cell-based, human; conditions: 30 MOI LV-CD24 and 25 µM INS with 50 µM Raltegravir; 24 h post-treatment
Description: Fig. 2 The effect of IN-derived peptides on cell survival. A Schematic illustration of the treatment protocol. B Microscopic observation of the GFP incorporation inhibition by Raltegravir. H1975 lung cancer cells were exposed to 30 MOI LV-CD24 and 25 µM INS with or without the addition of 50 µM Raltegravir. Images were taken 24 h post-treatment. C 2000 Panc-1 (left) and H1975 (right) cells were seeded in 96-well plates and were treated with the different items as described. Cell survival was measured by the enzymatic WST-1 (left) and MTT assays (right). % Survival was calculated as the percentage of living cells remaining after treatment with respect to non-treated cells.

CHO-WBL cells = test: Chromosomal aberration assay (genotoxicity); type: cell-based, Chinese hamster; conditions: CP 2.5, +S9, 3 h treatment, harvest 22 h
Description: All cells were cultured for 22 h after initiation of INS treatment.

H1975 lung cancer cells [3] = test: Cytotoxicity of peptides without lentiviral particles, MTT; type: cell-based, human; conditions: peptide alone, three times over ten days
Description: H1975 lung cancer cells were treated three times over the course of 10 days (on days 2, 4, and 7) with different concentrations of the tested peptides. Following ten days of incubation, cells were analyzed for potential toxicity using a quantitative cell viability test, the MTT assay.

[4] = Solubility of IN-derived peptides in human plasma; type: physicochemical; conditions: LC-MS
Description: (§2) Analytic HPLC-MS was performed using an Agilent 1260 series Liquid Chromatography/Mass Selective Detector (MSD) equipped with an electrospray interface and a UV diode array detector. Analyses were performed on an ACE C8, 50 × 3.0 mm, 3 µm column, with an isocratic 0.1% formic acid/ACN eluent, at a rate of 1 ml/min over a period of 5 min. UV absorption was measured at 280 nm, 220 nm, and 215–395 nm. MS analysis was performed with ESI (electron spray ionization) with a positive ionization method.
(§3) Four reaction systems were prepared; INS and INR2 in human plasma, INS and INR2 in rat plasma (Supplementary Table 2). Freshly prepared 10 mg/ml stock solution of the peptides was injected into plasma or PBS solution (1:1). The mixture was diluted with methanol to precipitate the plasma proteins. The samples were filtered through PTFE 0.45 µm filters and run in LC-MS. Samples were taken at the following times: 0, 15, 30, 60, 120, 240, and 480 min and after 24 h.
(§4) Plasma solubility was determined at 0 min and was verified at 60 min (if no degradation was observed).

[5] = Solubility of IN-derived peptides in rat plasma; type: physicochemical; conditions: LC-MS
Description: as §2, §3, §4

[6] = Solubility of IN-derived peptides in PBS; type: physicochemical; conditions: for Solubility: at 0 min, verified at 60 min, LC-MS
Description: as §2, §3, §4

[7] = Stability test in rat plasma; type: in vitro ADME; conditions: for Analyte Remaining %: 10 mg/ml stock into plasma 1:1, LC-MS; for Concentration calculated from LC-MS data: 10 mg/ml stock into plasma 1:1, methanol precipitation, 0.45 µm filtration
Description: as §2, §3

[8] = Stability test in human plasma; type: in vitro ADME; conditions: for Analyte Remaining % / Concentration calculated from LC-MS data: human plasma, 10 mg/ml stock into plasma 1:1, LC-MS; for Concentration calculated from LC-MS data: methanol precipitation, 0.45 µm filtration
Description: as §2, §3

[9] = from 5 mg/mL sample (10 mg/ml stock into plasma 1:1), at 0 min, verified at 60 min, methanol precipitation, PTFE 0.45 µm filtration

Cc1nnc(C(=O)NC(C)(C)c2nc(C(=O)NCc3ccc(F)cc3)c(O)c(=O)n2C)o1 [Raltegravir]
Effect on induction of apoptosis [1]: inhibited the induction of apoptosis | Effect on cell death induced by LV plus peptide (H1975 cells): successfully suppressed the observed cell death | Effect on cell death induced by LV plus peptide (Panc-1 cells): successfully suppressed the observed cell death | Effect on GFP fluorescence of INS-treated cells (H1975 lung cancer cells [2]): nearly eliminated

O=P1(N(CCCl)CCCl)NCCCO1 (stereo not shown) [CP, cyclophosphamide monohydrate, reference compound]
% Gaps (CHO-WBL cells): 4.0% | % Structural aberration without gaps (CHO-WBL cells): 47.0% | Cells with endoreduplication (%) (CHO-WBL cells): 3.0% | Cells with polyploidy (%) (CHO-WBL cells): 0.0% | Cytotoxicity (%) (CHO-WBL cells; cell growth inhibition relative to negative control): 50% | % Structural aberrant cells (CHO-WBL cells; cells with only gaps not included, *p ≤ 0.05 Fisher's Exact test): 35.0* %

CC(C)[C@H](NC(=O)[C@@H](NC(=O)[C@@H](NC(=O)[C@H](CO)NC(=O)[C@@H](NC(=O)[C@H](Cc1ccccc1)NC(=O)[C@H](CC(N)=O)NC(=O)[C@H](CO)NC(=O)CNC(=O)[C@@H](N)Cc1c[nH]c2ccccc12)[C@@H](C)O)[C@@H](C)O)[C@@H](C)O)C(=O)N[C@@H](CCCCN)C(=O)N[C@@H](C)C(=O)O [INR] (H-WGSNFTSTTVKA-OH)
Effect on lung cancer cell viability (H1975 lung cancer cells [3]): no effect | Solubility ([4]; % of 5 mg/mL sample): 44.2% | Solubility [4, 9]: 2.21 mg/mL (≈ 1700 µM) | Solubility ([5]; % of 5 mg/mL sample): 42.6% | Solubility [5, 9]: 2.13 mg/mL (≈ 1640 µM) | Solubility ([6]; % of 5 mg/mL sample): 66.2% | Solubility ([6]; from 5 mg/mL sample (10 mg/ml stock into PBS 1:1), methanol dilution, PTFE 0.45 µm filtration): 3.31 mg/mL (≈ 2550 µM) | Solubility (in words) ([6]; rat and human plasma): highly soluble | Analyte Remaining % ([7]; 0 h): 41.8% | Concentration calculated from LC-MS data ([7]; 0 h): 2090 µg/mL | Analyte Remaining % ([7]; 0.25 h): 51.1% | Concentration calculated from LC-MS data ([7]; 0.25 h): 2560 µg/mL | Analyte Remaining % ([7]; 0.5 h): 34.3% | Concentration calculated from LC-MS data ([7]; 0.5 h): 1710 µg/mL | Analyte Remaining % ([7]; 1 h): 43.5% | Concentration calculated from LC-MS data ([7]; 1 h): 2170 µg/mL | Analyte Remaining % ([7]; 2 h): 43.6% | Concentration calculated from LC-MS data ([7]; 2 h): 2180 µg/mL | Analyte Remaining % ([7]; 4 h): 38.2% | Concentration calculated from LC-MS data ([7]; 4 h): 1910 µg/mL | Analyte Remaining % ([7]; 8 h): 35.3% | Concentration calculated from LC-MS data ([7]; 8 h): 1760 µg/mL | Analyte Remaining % ([7]; 24 h): 36.9% | Concentration calculated from LC-MS data ([7]; 24 h): 1840 µg/mL | Stability ([8]; both types of sera (rat and human plasma), for the entire 24 h): 40% | Analyte Remaining % ([8]; 0 h): 40.9% | Concentration calculated from LC-MS data ([8]; 0 h): 2050 µg/mL | Analyte Remaining % ([8]; 0.25 h): 40.3% | Concentration calculated from LC-MS data ([8]; 0.25 h): 2020 µg/mL | Analyte Remaining % ([8]; 0.5 h): 45.3% | Concentration calculated from LC-MS data ([8]; 0.5 h): 2270 µg/mL | Analyte Remaining % ([8]; 1 h): 47.3% | Concentration calculated from LC-MS data ([8]; 1 h): 2370 µg/mL | Analyte Remaining % ([8]; 2 h): 39.2% | Concentration calculated from LC-MS data ([8]; 2 h): 1960 µg/mL | Analyte Remaining % ([8]; 4 h): 41.2% | Concentration calculated from LC-MS data ([8]; 4 h): 2060 µg/mL | Analyte Remaining % ([8]; 8 h): 38.3% | Concentration calculated from LC-MS data ([8]; 8 h): 1910 µg/mL | Analyte Remaining % ([8]; 24 h): 38.9% | Concentration calculated from LC-MS data ([8]; 24 h): 1950 µg/mL | Stability ([8]; rat and human plasma, ~4 h incubation): 40%
